Values quoted from earlier work in patent US20160081937A1, “TABLET WITH INCREASED DRUG LOAD OF ODANACATIB” (SANDOZ AG, priority 2013, published 2016).

Tests used:
[1] = crystalline odanacatib
[2] = in vivo

aqueous solubility [1]: low
SMILES: CC(C)(F)C[C@H](N[C@@H](c1ccc(-c2ccc(S(C)(=O)=O)cc2)cc1)C(F)(F)F)C(=O)NC1(C#N)CC1 [Odanacatib, odanacatib]
oral bioavailability [2]: highly dependable on vehicle, dosage and sample preparation | lumbar spine, hip and femoral neck BMD (patients treated once weekly with 20-50 mg): increases | BMD at the same sites (lumbar spine, hip, femoral neck) (patients treated with low doses): decreases
